Values quoted from earlier work in patent publication US9622997B2, “Methods for treating insomnia” (Lynn Health Science Institute, Inc., priority 2012, dated 2017).
Where two headings read alike, the source gives them in different places.

How the values were obtained:
[1] = tested on: 3 hour phase-advance study population; details: 6 mg, cited from earlier work
[2] = tested on: 2 hour phase-advance study population; details: cited from earlier work; for TST: ↑ increase compared to placebo; for WASG: ↓ decrease compared to placebo
[3] = tested on: First-night effect (no PA) study population; details: cited from earlier work; for TST: ↑ increase compared to placebo; for WASG: ↓ decrease compared to placebo, NS
[4] = tested on: 2 hour phase-advance study population; details: ↓ decrease compared to placebo, cited from earlier work
[5] = tested on: 3 hour phase-advance study population; parameters: TST: unit not given here; details: cited from earlier work; for TST: ↑ increase compared to placebo; for WASG: ↓ decrease compared to placebo
[6] = tested on: 4 hour phase-advance study population; details: 10 mg, cited from earlier work
[7] = recent study; cited from earlier work
[8] = tested on: 4 hour phase-advance study population; details: 10 mg, cited from earlier work; remark: listed apart in the source

CN(C)CCC=C1c2ccccc2COc2ccccc21 [Doxepin]
TST ([1]; ↑ increase compared to placebo): ↑ 51.1
SOL ([1]; ↓ decrease compared to placebo): ↓ 15.9
WASG ([1]; ↓ decrease compared to placebo): ↓ 40.0 min

CC(=O)N(C)c1cccc(-c2ccnc3c(C(=O)c4cccs4)cnn23)c1 [Indiplon]
TST ([2]; 10 mg): ↑ 11.6
TST ([2]; 20 mg): ↑ 20.6
WASG ([2]; 20 mg): ↓ 7.4 min
WASG ([2]; NS, 10 mg): ↓ 1.2^NS min

CCC(=O)NCC[C@@H]1CCc2ccc3c(c21)CCO3 [Ramelteon]
TST ([3]; 8 mg): ↑ 17.1
TST ([3]; 16 mg): ↑ 13.4
WASG ([3]; 8 mg): ↓ 5.0^NS min
WASG ([3]; 16 mg): ↓ 2.5^NS min

CN1C(=O)C(O)N=C(c2ccccc2)c2cc(Cl)ccc21 (stereo not drawn) [Temazepam]
WASG ([4]; NS, temazepam 15 mg): ↓ 7.0^NS min

Cc1ccc(-c2nc3ccc(C)cn3c2CC(=O)N(C)C)cc1 [Zolpidem]
TST ([5]; 10 mg): ↑ 35.7
TST ([5]; 15 mg): ↑ 37.3
TST ([5]; NS, 5 mg): ↑ 35.6^NS
TST ([5]; NS, 20 mg): ↑ 12.8^NS
WASG ([5]; 20 mg): ↓ 32.3 min
WASG ([5]; NS, 5 mg): ↓ 22.5^NS min
WASG ([5]; NS, 10 mg): ↓ 31.2^NS min
WASG ([5]; NS, 15 mg): ↓ 26.9^NS min
TST ([6]; ↑ increase compared to placebo): ↑ 52.8
WASG ([6]; ↓ decrease compared to placebo): ↓ 35.1 min
effect on sleep related GER (acid contact time) [7]: markedly prolonging acid contact time
TST ([8]; ↑ increase compared to placebo): ↑ 47.8
WASG ([8]; ↓ decrease compared to placebo): ↓ 24.7 min
WASG ([4]; zolpidem 10 mg, listed as zolpidem): 9.4 min
WASG ([4]; zolpidem 10 mg): ↓ 9.4 min
